The results in this text go back to patent US20210369710A1, “MODULATORS OF MYC FAMILY PROTO-ONCOGENE PROTEIN” (Nalo Therapeutics, priority 2019, published 2021).

One assay addresses T1, MycN Protein (Homo sapiens, UniProt P04198).
T1 construct: endogenous in cells; host or cells: HL-60 or SKNBE2
T1 sequence (P04198 1-464): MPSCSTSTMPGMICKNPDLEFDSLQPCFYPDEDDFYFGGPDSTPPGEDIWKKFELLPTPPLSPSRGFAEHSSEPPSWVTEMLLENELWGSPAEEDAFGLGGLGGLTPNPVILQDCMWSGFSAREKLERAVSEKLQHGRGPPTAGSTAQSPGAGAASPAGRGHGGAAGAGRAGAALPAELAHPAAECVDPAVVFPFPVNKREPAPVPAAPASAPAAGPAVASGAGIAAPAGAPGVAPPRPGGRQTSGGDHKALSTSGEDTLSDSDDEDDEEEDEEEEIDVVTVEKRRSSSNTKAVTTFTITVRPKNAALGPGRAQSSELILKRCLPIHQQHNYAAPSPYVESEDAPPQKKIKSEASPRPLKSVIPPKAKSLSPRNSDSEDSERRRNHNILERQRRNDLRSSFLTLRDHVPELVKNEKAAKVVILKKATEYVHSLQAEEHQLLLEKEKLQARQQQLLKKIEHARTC
Put plainly: Degradation of MycN protein, Western blot band density in cells. The format is cell-based. The settings on record: HL-60 or SKNBE2 cells; 6 uL of compound (1 mM) added to 3 mL cells; 6 hours; Western blot band density (ImageJ). How it is done: (§1) In a T150 flask was plated either 2×10^6 of HL-60 (human leukemia cell line) or SKNBE2 (neuroblastoma cell line) cells in a total of 30 mL containing Roswell Park Memorial Institute (RPMI) 1640 Medium (Thermo Fisher, Cat. #11875-085), 10% Fetal Bovine Serum (FBS, Thermo Fisher: Cat. #10437-028), 1% Penicillin/streptomycin (Thermo Fisher: Cat. #10378016), and 1% Amophotericin B (Thermo Fisher, Cat. #15290026). The cells were split every 72 hours by reseeding the HL-60 or SKNBE2 cells, and the passage number was noted. It is noteworthy that cell cultures that were above 40 passages were not used, and most experiments were done with cells of less than 30 passages.
(§2) In a 6-well cell culture plate, a total of 3 mL of either 1×10^6 cells/mL of HL-60 or SKNBE2 cells were seeded, resulting in a total of 3×10^6 cells per well. To each well containing 3 mL of either HL-60 or SKNBE2 cell line was added 6 uL of MycN modulating compound (1 mM) and the resulting plate was shaken from left to right, and not swirled. After 6 hours, the cells were placed in a 15 mL falcon tube and spun at 500 Gs at 4° C. in a swinging bucket centrifuge. The medium was then carefully removed without disturbing the pellet. The pellet was then washed with 3 mLs of chilled phosphate buffered saline (PBS) and subjected to the spin cycle. PBS was then removed and the pellet was lysed in 200 uL of radioimmunoprecipitation (RIPA) lysis buffer (Thermo Fisher: Cat. #899000) that is supplemented with protease and phosphatase inhibitors (Thermo Fisher: Cat. #A32959). The cell lysate was then subjected to spinning in a centrifuge for 10 minutes at 13000G at 4° C. The supernatant was then carefully transferred to a fresh eppendorf tube without disturbing the pellet (˜180 uL). The protein concentration of the cell lysate was then determined by using a bicinchoninic acid (BCA assay) according to manufacturer's protocol (Thermo Fisher: Cat. #23227).
(§3) Cell lysate, approximately 25 ug-30 ug, was loaded per well in a 4-20% polyacrylamide gel (Biorad. Cat. #5671094). After running the dye front off of the gel, the gel was transferred to a nitrocellulose membrane (Biorad: Cat. #1704159) using the transblot turbo system (Biorad: Cat. #1704150) according to manufacturer's protocol. After transferring for 30 minutes, the membrane was blocked with 5% BSA for 1 hour at room temperature. The BSA was then washed off and the primary antibody of choice (1:500) was added, and the membrane was incubated with the primary antibody at 4° C. for overnight. The next morning, the primary antibody was removed and the membrane was washed with 1×-TBST for 10 minutes and repeated three more times. Following the last wash, a secondary antibody (Molecular Devices. Cat. #R8209 or R8208) was added at 1:5000 dilution and incubated for 1 hour at room temperature. Following the incubation with the secondary antibody, the membrane was washed with 1×-TBST for 10 minutes and repeated three more times. Following the last wash, the membrane was washed with de-ionized water twice and dried for at least two hours. Once the membrane is completely dry, the Molecular Devices Spectra Max western system was used to observe the bands. The western image was saved and the band density was measured with ImageJ software.

For a further assay, the target named is T2, MycC Protein (Homo sapiens, UniProt P01106).
T2 construct: endogenous in cells; host or cells: HL-60 or SKNBE2
T2 sequence (P01106 whole entry): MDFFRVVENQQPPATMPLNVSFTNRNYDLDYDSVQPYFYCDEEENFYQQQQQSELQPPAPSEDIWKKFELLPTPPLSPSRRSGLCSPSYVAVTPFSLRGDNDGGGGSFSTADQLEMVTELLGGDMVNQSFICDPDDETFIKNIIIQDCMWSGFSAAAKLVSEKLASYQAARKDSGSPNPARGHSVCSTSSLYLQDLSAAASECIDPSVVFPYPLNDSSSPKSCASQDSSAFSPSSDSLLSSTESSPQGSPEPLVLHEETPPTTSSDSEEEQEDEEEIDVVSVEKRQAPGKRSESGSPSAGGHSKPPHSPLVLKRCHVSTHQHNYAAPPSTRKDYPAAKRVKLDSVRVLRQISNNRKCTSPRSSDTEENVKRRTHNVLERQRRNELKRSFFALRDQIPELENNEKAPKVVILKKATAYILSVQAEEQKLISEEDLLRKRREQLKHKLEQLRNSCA
The assay can be described thus: Degradation of MycC protein, Western blot band density in cells. The format is cell-based. The settings on record: HL-60 or SKNBE2 cells; 6 uL of compound (1 mM) added to 3 mL cells; 6 hours; Western blot band density (ImageJ). How it is done:
as §1, §2, §3
Background: A western blot detects proteins with antibodies after separation by electrophoresis.

SMILES strings stand for the structures.

Turning to `O=C(NC1CCCC(N2CCCC2=O)C1)N[C@H]1CC[C@H](Nc2nccc(Nc3cc(C4CCCC4)[nH]n3)n2)CC1` (mixture of isomers) [Compound 27, 1-((1R,4R)-4-((4-((5-cyclopentyl-1H-pyrazol-3-yl)amino)pyrimidin-2-yl)amino)cyclohexyl)-3-(3-(2-oxopyrrolidin-1-yl)cyclohexyl)urea], the Dmax at 2 µM at MycN Protein and at MycC Protein was below 20% each time. Consider `N#Cc1ccc2c(c1)CC(NC(=O)N[C@H]1CC[C@H](Nc3nccc(Nc4cc(C5CCCC5)[nH]n4)n3)CC1)C2` (mixture of isomers) [Compound 11 (Racemic), 1-(5-cyano-2,3-dihydro-1H-inden-2-yl)-3-((1R,4R)-4-((4-((5-cyclopentyl-1H-pyrazol-3-yl)amino)pyrimidin-2-yl)amino)cyclohexyl)urea], for which, at MycN Protein, the “% Degradation of MycN” value is recorded as “**** (****: degradation 80-100%)”. The “% Degradation of MycC” value at MycC Protein is “**** (****: degradation 80-100%)”. With `CN(c1nccc(Nc2cc(C3CCCC3)[nH]n2)n1)C1CCC(NC(=O)NC2Cc3ccc(C#N)cc3C2)CC1` (racemic) [Compound 16 (Racemic), 1-(5-cyano-2,3-dihydro-1H-inden-2-yl)-3-((1R,4R)-4-((4-((5-cyclopentyl-1H-pyrazol-3-yl)amino)pyrimidin-2-yl)(methyl)amino)cyclohexyl)urea], the “% Degradation of MycN” value at MycN Protein is given as “**** (****: degradation 80-100%)”. The “% Degradation of MycC” value on MycC Protein is listed as “**** (****: degradation 80-100%)”. Take `CN(c1nccc(Nc2cc(C3CCCC3)[nH]n2)n1)C1CCC(NC(=O)N[C@H]2CCC[C@@H](C(F)(F)F)C2)CC1` (mixture of isomers) [Compound 121 (Racemic), 1-((1R,4S)-4-((4-((5-cyclopentyl-1H-pyrazol-3-yl)amino)pyrimidin-2-yl)(methyl)amino)cyclohexyl)-3-((1S,3R)-3-(trifluoromethyl)cyclohexyl)urea]: at MycN Protein, the “% Degradation of MycN” value is on record as “*** (***: degradation 50-79%)”. In addition, at MycC Protein, the “% Degradation of MycC” value is reported as “*** (***: degradation 50-79%)”. On to `CC(=O)N1CCC(NC(=O)N[C@H]2CC[C@H](Nc3nccc(Nc4cc(C5CCCC5)[nH]n4)n3)CC2)CC1` [Compound 2, 1-(1-acetylpiperidin-4-yl)-3-((1R,4R)-4-((4-((5-cyclopentyl-1H-pyrazol-3-yl)amino)pyrimidin-2-yl)amino)cyclohexyl)urea], for which the Dmax (as a rule, the greatest extent of degradation seen) at 2 µM at MycN Protein was 20 to 49%; at MycC Protein, below 20%. As to `CS(=O)(=O)c1ccc2c(c1)CC(NC(=O)N[C@H]1CC[C@H](Nc3nccc(Nc4cc(C5CCCC5)[nH]n4)n3)CC1)C2` (stereo partly drawn) [Compound 3, 1-((1R,4R)-4-((4-((5-cyclopentyl-1H-pyrazol-3-yl)amino)pyrimidin-2-yl)amino)cyclohexyl)-3-(5-(methylsulfonyl)-2,3-dihydro-1H-inden-2-yl)urea], the maximal degradation (Dmax) at 2 µM on MycN Protein was in the range of 20 to 49%; at MycC Protein, 50 to 79%. As to `CC(NC(=O)N[C@H]1CC[C@H](Nc2nccc(Nc3cc(C4CCCC4)[nH]n3)n2)CC1)c1ccccn1` (stereo partly drawn) [Compound 4], the greatest degradation seen (Dmax) at 2 µM on MycN Protein was in the range of 20 to 49%; at MycC Protein, 80 to 100%. The matching figures for `N#Cc1ccc2c(c1)CC(NC(=O)N[C@H]1CC[C@H](Nc3nccc(Nc4cc(C5CCOC5)[nH]n4)n3)CC1)C2` (stereo partly drawn) [Compound 5, 1-(5-cyano-2,3-dihydro-1H-indene-2-yl)-3-((1R,4R)-4-((4-((5-(tetrahydrofuran-3-yl)-1H-pyrazol-3-yl)amino)pyrimidine-2-yl)amino)cyclohexyl)urea]: 20 to 49% and below 20%.

With `Cc1cc(Nc2ccnc(NC3CCC(N)CC3)n2)n[nH]1` [Compound 6, N^2-((1R,4R)-4-aminocyclohexyl)-N^4-(5-methyl-1H-pyrazol-3-yl)pyrimidine-2,4-diamine], the “% Degradation of MycN” value at MycN Protein is “* (*: degradation <20%)”. In addition, the “% Degradation of MycC” value at MycC Protein was “** (**: degradation 20-49%)”.

For the molecule `CCc1cc(Nc2ccnc(N[C@H]3CC[C@H](NC(=O)NC4Cc5ccc(C#N)cc5C4)CC3)n2)n[nH]1` (stereo partly drawn) [Compound 8, 1-(5-cyano-2,3-dihydro-1H-inden-2-yl)-3-((1R,4R)-4-((4-((5-ethyl-1H-pyrazol-3-yl)amino)pyrimidin-2-yl)amino)cyclohexyl)urea], the maximal degradation (Dmax) at 2 µM at MycN Protein was below 20%; at MycC Protein, 20 to 49%. For the molecule `O=C(NC1CC2CCC(C1)N2C1CC1)N[C@H]1CC[C@H](Nc2nccc(Nc3cc(C4CCCC4)[nH]n3)n2)CC1` (stereo partly drawn) [Compound 61, 1-((1R,4R)-4-((4-((5-cyclopentyl-1H-pyrazol-3-yl)amino)pyrimidin-2-yl)amino)cyclohexyl)-3-(8-cyclopropyl-8-azabicyclo[3.2.1]octan-3-yl)urea], at MycN Protein, the Dmax at 2 µM is below 20%. Turning to `O=C(NC12CCN(CC1)CC2)N[C@H]1CC[C@H](Nc2nccc(Nc3cc(C4CCCC4)[nH]n3)n2)CC1` [Compound 68], on MycN Protein, the greatest degradation seen (Dmax) at 2 µM was in the range of 20 to 49%. Molecule `O=C(Nc1cccc(C(F)(F)F)c1)N[C@@H]1CC[C@@H](Nc2nccc(Nc3cc(C4CCCC4)[nH]n3)n2)C1` [Compound 82] returned a Dmax at 2 µM at MycN Protein of 20 to 49%. Molecule `CN1CCC(NC(=O)N[C@H]2CC[C@H](Nc3nccc(Nc4cc(C5CCCC5)[nH]n4)n3)CC2)CC1` [Compound 97, 1-((1R,4R)-4-((4-((5-cyclopentyl-1H-pyrazol-3-yl)amino)pyrimidin-2-yl)amino)cyclohexyl)-3-(1-methylpiperidin-4-yl)urea] showed a Dmax at 2 µM at MycN Protein of 20 to 49%. For `CN(C)C(=N)c1ccc2c(c1)CC(NC(=O)N[C@H]1CC[C@H](Nc3nccc(Nc4cc(C5CCCC5)[nH]n4)n3)CC1)C2` (stereo partly drawn) [Compound 98], the Dmax at 2 µM at MycN Protein is below 20%.

On MycN Protein, `N=C(NC1COC1)c1ccc2c(c1)CC(NC(=O)N[C@H]1CC[C@H](Nc3nccc(Nc4cc(C5CCCC5)[nH]n4)n3)CC1)C2` (stereo partly drawn) [Compound 99] registered a maximal degradation (Dmax) at 2 µM below 20%. `O=C(NC1Cc2ccc(C3=NCC(O)CN3)cc2C1)N[C@H]1CC[C@H](Nc2nccc(Nc3cc(C4CCCC4)[nH]n3)n2)CC1` (stereo partly drawn) [Compound 100] had a Dmax at 2 µM at MycN Protein below 20%.

Regarding `CN(c1nccc(Nc2cc(C3CCCC3)[nH]n2)n1)[C@H]1CC[C@H](NC(=O)Nc2cccc(C(F)(F)F)c2)CC1` [Compound 146, 1-((1R,4R)-4-((4-((5-cyclopentyl-1H-pyrazol-3-yl)amino)pyrimidin-2-yl)(methyl)amino)cyclohexyl)-3-(3-(trifluoromethyl)phenyl)urea], the Dmax at 2 µM on MycN Protein fell in the range of 50 to 79%.

`CN(c1nccc(Nc2cc(C3CC3)[nH]n2)n1)[C@H]1CC[C@H](NC(=O)Nc2cccc(C(F)(F)F)c2)CC1` [Compound 147, 1-((1R,4R)-4-((4-((5-cyclopropyl-1H-pyrazol-3-yl)amino)pyrimidin-2-yl)(methyl)amino)cyclohexyl)-3-(3-(trifluoromethyl)phenyl)urea] returned a Dmax at 2 µM at MycN Protein of 80 to 100%. As for `CN(c1nccc(Nc2cc(C3CC3)[nH]n2)n1)[C@H]1CC[C@H](NC(=O)NC2Cc3cc(F)c(F)cc3C2)CC1` [Compound 151, 1-((1R,4R)-4-((4-((5-cyclopropyl-1H-pyrazol-3-yl)amino)pyrimidin-2-yl)(methyl)amino)cyclohexyl)-3-(5,6-difluoro-2,3-dihydro-1H-inden-2-yl)urea], at MycN Protein, the Dmax at 2 µM was 50 to 79%.
